Experimental data reported in patent US20100285959A1, “HERBICIDAL MIXTURES” (priority 2006, published 2010).

Key:
[1] = tested on: wild chamomile (MATCH); assay: Test 23 growth chamber, postemergence; format: in vivo, Matricaria chamomilla; details: 21 DAA
Protocol: (§1) A test was conducted to evaluate the effects on winter barley (HORVW, Hordeum vulgare L.), winter wheat (TRZAW, Triticum aestivum L.), and several weed species of mixtures of Compound 2 with the commercial herbicides (2,4-dichlorophenoxy)acetic acid (2,4-D) and (4-chloro-2-methylphenoxy)acetic acid (MCPA), auxin mimics. […] Plants were treated postemergence at the 2-4 leaf growth stage, and each treatment was replicated three times. […] Plants were watered as needed. […] Results are means of the three replicates.

[2] = tested on: Russian thistle (SASKR); assay: Test 22 growth chamber, postemergence; format: in vivo, Salsola kali; details: 25 DAA
Protocol: as §1, with “stage, except KCHSC, SASKR” for “stage,”, “STEME which were in the 4-8 leaf growth stage. Each” for “each”, “one time.” for “three times.”, “from single” for “means of the three”

[3] = tested on: winter wheat (TRZAW); assay: Test 21 growth chamber, postemergence; format: in vivo, Triticum aestivum; details: 19 DAA
Protocol: as §1, with “species,” for “species”, “herbicide” for “herbicides”, “(2,4-D), an” for “(2,4-D) and (4-chloro-2-methylphenoxy)acetic acid (MCPA),”, “mimic.” for “mimics.”, “one time.” for “three times.”, “from single” for “means of the three”

[4] = tested on: wild mustard (SINAR); assay: Test 21 growth chamber, postemergence; format: in vivo, Sinapis arvensis; details: 19 DAA
Protocol: as §1, with “species,” for “species”, “herbicide” for “herbicides”, “(2,4-D), an” for “(2,4-D) and (4-chloro-2-methylphenoxy)acetic acid (MCPA),”, “mimic.” for “mimics.”, “one time.” for “three times.”, “from single” for “means of the three”

[5] = tested on: velvetleaf (ABUTH); assay: Test 14 field trial, preemergence, growth as percent of control; format: in vivo, Abutilon theophrasti
Description: (§2) Corn seeds (hybrid ‘Pioneer 31G96 RR’) were planted in mid spring season, 3.8 cm deep in a clay loam soil having 2% organic matter and a pH of 6.6. Plots were 6.1 m long by 3.0 m wide with rows spaced 76 cm apart. Seeds were spaced 15 cm apart within the rows. The field was managed using conventional tillage practices. […] Yellow nutsedge was only evaluated 19 and 28 days after application, and ivyleaf morningglory could only be evaluated 28 days after application. […] Results are the means of the three replicates. This growth inhibition data was converted to results in the form of “plant growth as a percent of control plant growth” using the calculation “100 minus growth inhibition”. […] For “growth as a percent of control” data, Colby's Equation calculates the expected additive effect of herbicidal mixtures having two active ingredients as follows:
(§3) Ga+b=GaGb/100 • wherein Ga+b is the growth as a percent of control of plants treated with the mixture expected from additive contribution of the individual components, • Ga is the observed growth as a percent of control of plants treated with the first active ingredient at the same use rate as in the mixture, and • Gb is the observed growth as a percent of control of plants treated with the second active ingredient at the same use rate as in the mixture. For mixtures having three active ingredients, Colby's Equation to calculate the expected additive effect of herbicidal mixtures is as follows:
(§4) Ga+b+c=GaGbGc/10,000 • wherein Ga and Gb are as defined above and • Ga+b+c is the growth as a percent of control of plants treated with the mixture expected from additive contribution of the individual components, and • Gc is the observed growth as a percent of control of plants treated with the third active ingredient at the same use rate as in the mixture. When these two forms of Colby's Equation are used, if the observed effects on weeds are less than the expected values, the mixture is synergistic.

[6] = tested on: giant ragweed (AMBTR); assay: as above; format: in vivo, Ambrosia trifida
Description: as §2, §3, §4

[7] = tested on: tropical spiderwort (COMBE); assay: Test 12 field trial, preemergence; format: in vivo, Commelina benghalensis; design: scale not given here; details: Cpd 2 or Cpd 1 62 g a.i./ha, Diuron 2000 g a.i./ha
Description: In early-mid spring season, corn seeds (hybrid ‘Pioneer 3041’) were planted 5 cm deep and sugarcane nodes (variety RB-72.454) were planted 10 cm deep in separate plots in a clay soil having 2.6% organic matter and a pH of 5.6. Plots were 24 m long by 1.5 m wide with rows spaced 80 cm (corn) or 140 cm (sugarcane) apart. Corn seeds were spaced 15 cm apart and sugarcane nodes were spaced 10 cm apart within the rows. At the same time, weed seeds were broadcast over the surface of separate plots without a crop, one weed species per plot. The weed plots were rotary tilled to incorporate the weed seeds to a variety of depths. The field was managed using conventional tillage practices.

[8] = tested on: common ragweed (AMBEL); assay: Test 2 field trial, preemergence; format: in vivo, Ambrosia artemisiifolia; design: scale not given here
Description: (§5) Corn seeds (hybrid ‘Pioneer 31G96’) were planted in mid spring season, 3.8 cm deep in a clay loam soil having 2% organic matter and a pH of 6.6. Plots were 6.1 m long by 3.0 m wide with rows spaced 76 cm apart. Seeds were spaced 15 cm apart within the rows. The field was managed using conventional tillage practices. […] A few of the weed species could not be evaluated at every timing. […] Results are the means of the three replicates.

[9] = tested on: giant ragweed (AMBTR); assay: Test 2 field trial, preemergence; format: in vivo, Ambrosia trifida; design: scale not given here
Description: as §5

[10] = 2,4-D or MCPA alone 250 g a.i./ha
[11] = 18 DAA, g a.i./ha: Cpd 2 25, Atrazine 250
[12] = 18 DAA, g a.i./ha: Cpd 2 50, Atrazine 500
[13] = 18 DAA, g a.i./ha: Cpd 2 75, Atrazine 750
[14] = 18 DAA, g a.i./ha: Cpd 2 100, Atrazine 1000
[15] = 18 DAA, g a.i./ha: Cpd 2 150, Atrazine 1500
[16] = 28 DAA, g a.i./ha: Cpd 2 25, Atrazine 250
[17] = 28 DAA, g a.i./ha: Cpd 2 50, Atrazine 500
[18] = 28 DAA, g a.i./ha: Cpd 2 75, Atrazine 750
[19] = 28 DAA, g a.i./ha: Cpd 2 100, Atrazine 1000
[20] = 28 DAA, g a.i./ha: Cpd 2 150, Atrazine 1500
[21] = 55 DAA, g a.i./ha: Cpd 2 25, Atrazine 250
[22] = 55 DAA, g a.i./ha: Cpd 2 50, Atrazine 500
[23] = 55 DAA, g a.i./ha: Cpd 2 75, Atrazine 750
[24] = 55 DAA, g a.i./ha: Cpd 2 100, Atrazine 1000
[25] = 55 DAA, g a.i./ha: Cpd 2 150, Atrazine 1500

SMILES: O=C(O)COc1ccc(Cl)cc1Cl [2,4-D, (2,4-dichlorophenoxy)acetic acid]
- Postemergence MATCH Obs [1, 10]: 60
- Postemergence SASKR Obs [2, 10]: 60
- Postemergence TRZAW Obs ([3]; 2,4-D alone 125 g a.i./ha): 35
- Postemergence TRZAW Obs ([3]; 2,4-D alone 250 g a.i./ha): 40
- Postemergence SINAR Obs ([4]; 2,4-D alone 125 g a.i./ha): 85
- Postemergence SINAR Obs ([4]; 2,4-D alone 250 g a.i./ha): 65

SMILES: CCc1cccc(C)c1N(C(=O)CCl)[C@@H](C)COC [S-Metolachlor, S-metolachlor, reference compound]
- Obs growth % of control ([5]; 19 DAA, 1870 g a.i./ha): 68%
- Obs growth % of control ([5]; 28 DAA, 1870 g a.i./ha): 6%
- Obs growth % of control ([5]; 56 DAA, 1870 g a.i./ha): 87%
- Obs growth % of control ([6]; 19 DAA, 1870 g a.i./ha): 83%
- Obs growth % of control ([6]; 28 DAA, 1870 g a.i./ha): 88%
- Obs growth % of control ([6]; 56 DAA, 1870 g a.i./ha): 100%

SMILES: Nc1nc(C2CC2)nc(C(=O)O)c1Cl [Compound 1, 6-amino-5-chloro-2-cyclopropyl-4-pyrimidinecarboxylic acid]
- COMBE Obs ([7]; 15 DAA): 60
- COMBE Obs ([7]; 29 DAA): 40
- COMBE Obs ([7]; 48 DAA): 40
- COMBE Obs ([7]; 61 DAA): 0

SMILES: CCNc1nc(Cl)nc(NC(C)C)n1 [Atrazine, atrazine, reference compound]
- AMBEL Obs [8, 11]: 20
- AMBEL Obs [8, 12]: 43
- AMBEL Obs [8, 13]: 57
- AMBEL Obs [8, 14]: 40
- AMBEL Obs [8, 15]: 48
- AMBEL Obs [8, 16]: 18
- AMBEL Obs [8, 17]: 69
- AMBEL Obs [8, 18]: 83
- AMBEL Obs [8, 19]: 86
- AMBEL Obs [8, 20]: 98
- AMBEL Obs [8, 21]: 12
- AMBEL Obs [8, 22]: 22
- AMBEL Obs [8, 23]: 63
- AMBEL Obs [8, 24]: 72
- AMBEL Obs [8, 25]: 90
- AMBTR Obs [9, 11]: 0
- AMBTR Obs [9, 12]: 30
- AMBTR Obs [9, 13]: 75
- AMBTR Obs [9, 14]: 20
- AMBTR Obs [9, 16]: 10
- AMBTR Obs [9, 17]: 5
- AMBTR Obs [9, 18]: 65

SMILES: COC(=O)c1nc(C2CC2)nc(N)c1Cl [Compound 2, methyl 6-amino-5-chloro-2-cyclopropyl-4-pyrimidinecarboxylate]
- AMBEL Obs [8, 11]: 18
- AMBEL Obs [8, 12]: 27
- AMBEL Obs [8, 13]: 53
- AMBEL Obs [8, 14]: 70
- AMBEL Obs [8, 15]: 70
- AMBEL Obs [8, 16]: 10
- AMBEL Obs [8, 17]: 48
- AMBEL Obs [8, 18]: 70
- AMBEL Obs [8, 19]: 88
- AMBEL Obs [8, 20]: 97
- AMBEL Obs [8, 21]: 10
- AMBEL Obs [8, 22]: 33
- AMBEL Obs [8, 23]: 42
- AMBEL Obs [8, 24]: 77
- AMBEL Obs [8, 25]: 93
- Postemergence MATCH Obs ([1]; Cpd 2 alone 4 g a.i./ha): 52
- Postemergence MATCH Obs ([1]; Cpd 2 alone 8 g a.i./ha): 63
- Postemergence MATCH Obs ([1]; Cpd 2 alone 16 g a.i./ha): 75
- Postemergence SASKR Obs ([2]; Cpd 2 alone 4 g a.i./ha): 50
- Postemergence SASKR Obs ([2]; Cpd 2 alone 8 g a.i./ha): 50
- Postemergence SASKR Obs ([2]; Cpd 2 alone 16 g a.i./ha): 55
- Obs growth % of control ([5]; 19 DAA, 75 g a.i./ha): 80%
- Obs growth % of control ([5]; 19 DAA, 100 g a.i./ha): 60%
- Obs growth % of control ([5]; 28 DAA, 75 g a.i./ha): 43%
- Obs growth % of control ([5]; 28 DAA, 100 g a.i./ha): 22%
- Obs growth % of control ([5]; 56 DAA, 75 g a.i./ha): 43%
- Obs growth % of control ([5]; 56 DAA, 100 g a.i./ha): 30%
- AMBTR Obs [9, 11]: 10
- AMBTR Obs [9, 12]: 30
- AMBTR Obs [9, 13]: 10
- AMBTR Obs [9, 14]: 45
- AMBTR Obs [9, 15]: 65
- AMBTR Obs [9, 16]: 35
- AMBTR Obs [9, 17]: 30
- AMBTR Obs [9, 18]: 75
- AMBTR Obs [9, 19]: 70
- Postemergence TRZAW Obs ([3]; Cpd 2 alone 16 g a.i./ha): 50
- Postemergence SINAR Obs ([4]; Cpd 2 alone 16 g a.i./ha): 65
- Obs growth % of control ([6]; 19 DAA, 75 g a.i./ha): 65%
- Obs growth % of control ([6]; 19 DAA, 100 g a.i./ha): 73%
- Obs growth % of control ([6]; 28 DAA, 75 g a.i./ha): 100%
- Obs growth % of control ([6]; 28 DAA, 100 g a.i./ha): 23%
- Obs growth % of control ([6]; 56 DAA, 75 g a.i./ha): 20%
- Obs growth % of control ([6]; 56 DAA, 100 g a.i./ha): 18%
- COMBE Obs ([7]; 15 DAA): 50
- COMBE Obs ([7]; 29 DAA): 40
- COMBE Obs ([7]; 48 DAA): 40
- COMBE Obs ([7]; 61 DAA): 40
